Source: patent publication US9920035B2, “Heterocyclic compounds, medicaments containing said compounds, use thereof and processes for the preparation thereof” (Boehringer Ingelheim International GmbH, priority 2011, dated 2018)

Each compound was assayed against T1, epithelial sodium channel (ENaC) (Mus musculus, UniProt Q61180+Q9WU38+Q9WU39) (assay: Ussing chamber: inhibition of amiloride sensitive short circuit current (I_sc) in M-1 cells). Conditions: Mouse kidney M-1 cells on transwell filters, Ussing chamber at 37° C., compound added to the apical solution.
T1 construct: Mouse kidney M-1 cells were cultivated in DMEM containing 5% FCS and 5 μM dexamethasone; endogenous in cells; host or cells: mouse kidney M-1 cells
T1 sequence (Q61180 1-699): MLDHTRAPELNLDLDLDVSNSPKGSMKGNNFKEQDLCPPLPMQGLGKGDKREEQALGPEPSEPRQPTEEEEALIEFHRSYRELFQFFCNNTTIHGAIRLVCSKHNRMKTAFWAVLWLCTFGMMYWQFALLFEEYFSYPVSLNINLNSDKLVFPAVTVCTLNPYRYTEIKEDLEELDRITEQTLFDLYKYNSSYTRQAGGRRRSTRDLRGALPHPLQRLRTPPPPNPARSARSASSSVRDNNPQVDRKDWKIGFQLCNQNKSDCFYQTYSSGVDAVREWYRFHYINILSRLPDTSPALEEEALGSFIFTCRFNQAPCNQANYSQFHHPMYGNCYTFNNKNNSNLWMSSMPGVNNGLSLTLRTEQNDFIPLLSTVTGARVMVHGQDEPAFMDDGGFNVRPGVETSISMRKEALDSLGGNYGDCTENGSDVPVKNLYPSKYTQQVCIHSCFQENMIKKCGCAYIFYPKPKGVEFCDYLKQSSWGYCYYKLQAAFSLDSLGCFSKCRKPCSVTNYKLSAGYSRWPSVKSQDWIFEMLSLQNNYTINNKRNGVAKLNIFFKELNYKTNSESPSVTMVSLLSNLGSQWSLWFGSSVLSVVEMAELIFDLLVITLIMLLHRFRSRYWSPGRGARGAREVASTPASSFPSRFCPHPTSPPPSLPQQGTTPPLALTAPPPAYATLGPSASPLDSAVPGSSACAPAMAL
T1 sequence (Q9WU38 1-638): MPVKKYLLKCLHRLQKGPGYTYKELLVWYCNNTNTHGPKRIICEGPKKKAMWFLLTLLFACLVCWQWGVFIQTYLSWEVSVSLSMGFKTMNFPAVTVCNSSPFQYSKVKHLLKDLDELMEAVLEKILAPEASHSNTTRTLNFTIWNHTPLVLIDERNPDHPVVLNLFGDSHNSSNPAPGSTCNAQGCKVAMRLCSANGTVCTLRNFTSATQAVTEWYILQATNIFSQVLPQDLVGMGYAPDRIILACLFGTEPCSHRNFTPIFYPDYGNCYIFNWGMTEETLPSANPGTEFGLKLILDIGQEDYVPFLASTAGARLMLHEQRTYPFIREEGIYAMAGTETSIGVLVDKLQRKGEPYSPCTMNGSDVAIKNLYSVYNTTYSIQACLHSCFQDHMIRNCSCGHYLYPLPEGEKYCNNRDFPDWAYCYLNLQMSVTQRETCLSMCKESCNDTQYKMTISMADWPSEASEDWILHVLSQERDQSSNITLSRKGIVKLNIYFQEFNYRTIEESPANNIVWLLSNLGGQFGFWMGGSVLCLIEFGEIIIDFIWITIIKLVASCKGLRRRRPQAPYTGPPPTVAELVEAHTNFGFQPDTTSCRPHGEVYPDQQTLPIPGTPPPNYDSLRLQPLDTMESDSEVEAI
T1 sequence (Q9WU39 1-655): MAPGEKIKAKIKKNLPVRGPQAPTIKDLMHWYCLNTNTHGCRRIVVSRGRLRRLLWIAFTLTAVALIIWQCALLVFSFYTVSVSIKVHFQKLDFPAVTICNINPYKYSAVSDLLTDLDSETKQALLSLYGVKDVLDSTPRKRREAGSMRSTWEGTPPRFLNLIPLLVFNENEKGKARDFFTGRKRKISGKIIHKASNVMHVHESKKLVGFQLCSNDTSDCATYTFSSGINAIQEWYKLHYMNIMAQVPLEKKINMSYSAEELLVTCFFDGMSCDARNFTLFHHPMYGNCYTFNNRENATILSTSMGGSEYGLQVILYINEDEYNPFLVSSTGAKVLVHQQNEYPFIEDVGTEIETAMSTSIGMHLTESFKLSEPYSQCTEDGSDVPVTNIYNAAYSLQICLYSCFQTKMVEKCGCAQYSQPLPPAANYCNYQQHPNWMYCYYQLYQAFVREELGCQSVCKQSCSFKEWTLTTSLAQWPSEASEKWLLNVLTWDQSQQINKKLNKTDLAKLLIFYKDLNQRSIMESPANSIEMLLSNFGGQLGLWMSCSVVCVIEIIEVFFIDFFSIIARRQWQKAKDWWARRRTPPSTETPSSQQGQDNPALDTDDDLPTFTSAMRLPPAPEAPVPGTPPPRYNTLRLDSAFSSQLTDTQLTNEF
Assay type: cell-based
Procedure: Mouse kidney M-1 cells were cultivated in DMEM containing 5% FCS and 5 μM dexamethasone for 10 to 12 days on polyester transwell filters. Filters were inserted into a teflon-coated well-plate which fit into the in-house ussing chamber system. Prior to measurement the medium of M-1 cells was replaced with Caco-2 transport buffer (Invitrogen, Germany). During measurements, the Ussing chamber temperature was kept at 37° C. Short circuit currents (I_sc) were measured in the voltage-clamp mode using an in-house built amplifier (Boehringer Ingelheim, Biberach) with the software package Lab View for data acquisition and analysis. The transepithelial electrical resistance (TEER) was determined by the application of voltage steps of ±5 mV every 5 sec. Compounds were administered at a final concentration of 3 μM or at increasing concentrations (1-3-10 μM) to the apical solution. At the end of each experiment the amiloride sensitive I_SC was measured by adding 3 μM amiloride to the apical compartment. Results are expressed as inhibition in percent of the amiloride effect or as IC50. Results are listed in tables 1 to 5 and further examples listed above.

SMILES	IC50 [nM]
CC(C)NC(=O)N1CCC(CCc2ccccc2)(CNC(N)=NC(=O)c2nc(Cl)c(N)nc2N)CC1 [Example 1.2]	8
COC(=O)CCC(=O)N1CCC(CNC(N)=NC(=O)c2nc(Cl)c(N)nc2N)(c2ccccc2)CC1 [Example 1.47]	29
NC(=NC(=O)c1nc(Cl)c(N)nc1N)NCC1(CCc2ccccc2)CCN(C(=O)c2ccccc2)CC1 [Example 1.5]	34
COC(=O)CCC(=O)N1CCC(CCc2ccccc2)(CNC(N)=NC(=O)c2nc(Cl)c(N)nc2N)CC1 [Example 1.14]	20
CC(C)(C)OC(=O)NCC(=O)N1CCC(CCc2ccccc2)(CNC(N)=NC(=O)c2nc(Cl)c(N)nc2N)CC1 [Example 1.25]	18
CS(=O)(=O)N1CCC(CCc2ccccc2)(CNC(N)=NC(=O)c2nc(Cl)c(N)nc2N)CC1 [Example 1.1]	34
CC(C)NC(=O)N1CCC(CNC(N)=NC(=O)c2nc(Cl)c(N)nc2N)(Cc2ccccc2)CC1 [Example 1.8]	17
C[N+]1(C)CCC(CCc2ccccc2)(CNC(N)=NC(=O)c2nc(Cl)c(N)nc2N)CC1 [Example 1.15]	91
CC(C)(C)OC(=O)NCCCCC(=O)N1CCC(CNC(N)=NC(=O)c2nc(Cl)c(N)nc2N)(Cc2ccccc2)CC1 [Example 1.26]	19
CN(C)CCCN1CCC(CNC(N)=NC(=O)c2nc(Cl)c(N)nc2N)(Cc2ccccc2)CC1 [Example 1.31]	287
COC(=O)CCC(=O)N1CCC(CCc2ccccc2)(CN/C(N)=N/C(=O)c2nc(Br)c(N)nc2N)CC1 [Example 10, 4-{4-[N′-(3,5-Diamino-6-bromo-pyrazine-2-carbonyl)-guanidinomethyl]-4-phenethyl-piperidin-1-yl}-4-oxo-butyric acid methyl ester]	32
CN1CCC(CCc2ccccc2)(CNC(N)=NC(=O)c2nc(Cl)c(N)nc2N)CC1 [Example 1.3]	33
NC(=NC(=O)c1nc(Cl)c(N)nc1N)NCC1(CCc2ccccc2)CCN(Cc2ccccc2)CC1 [Example 1.6]	40
COC(=O)CCC(=O)N1CCC(CNC(N)=NC(=O)c2nc(Cl)c(N)nc2N)(Cc2ccccc2)CC1 [Example 1.20]	75
CC(C)(C)OC(=O)NCCCNC(=O)N1CCC(CCc2ccccc2)(CNC(N)=NC(=O)c2nc(Cl)c(N)nc2N)CC1 [Example 1.34]	10
CCCC(=O)N1CCC(CCc2ccccc2)(CNC(N)=NC(=O)c2nc(Cl)c(N)nc2N)CC1 [Example 1.13]	13
CN(C)CCNC(=O)N1CCC(CCc2ccccc2)(CNC(N)=NC(=O)c2nc(Cl)c(N)nc2N)CC1 [Example 1.10]	36
COC(=O)CCNC(=O)N1CCC(CCc2ccccc2)(CNC(N)=NC(=O)c2nc(Cl)c(N)nc2N)CC1 [Example 1.19]	24
CN(C)CCN1CCC(CCc2ccccc2)(CNC(N)=NC(=O)c2nc(Cl)c(N)nc2N)CC1 [Example 1.32]	46
CC(C)(C)OC(=O)NCCCN1CCC(CCc2ccccc2)(CNC(N)=NC(=O)c2nc(Cl)c(N)nc2N)CC1 [Example 1.28]	36
CC(C)(C)OC(=O)NCCCNC(=O)N1CCC(CNC(N)=NC(=O)c2nc(Cl)c(N)nc2N)(Cc2ccccc2)CC1 [Example 1.36]	18
CN(C)CCCN1CCC(CCc2ccccc2)(CNC(N)=NC(=O)c2nc(Cl)c(N)nc2N)CC1 [Example 1.29]	86
CN1CCN(C(=O)N2CCC(CCc3ccccc3)(CN/C(N)=N/C(=O)c3nc(Cl)c(N)nc3N)CC2)CC1 [Example 1.53]	14
CN(C)CCCNC(=O)N1CCC(CNC(N)=NC(=O)c2nc(Cl)c(N)nc2N)(Cc2ccccc2)CC1 [Example 1.38]	42
CC(C)(C)OC(=O)NCCC(=O)N1CCC(CCc2ccccc2)(CNC(N)=NC(=O)c2nc(Cl)c(N)nc2N)CC1 [Example 1.22]	37
C[N+](C)(C)CCCC(=O)N1CCC(CCc2ccccc2)(CNC(N)=NC(=O)c2nc(Cl)c(N)nc2N)CC1 [Example 1.50]	15
CCNC(=O)N1CCC(CCc2ccccc2)(CN/C(N)=N/C(=O)c2nc(Cl)c(N)nc2N)CC1 [Example 1.12]	12
COC(=O)CNC(=O)N1CCC(CCc2ccccc2)(CNC(N)=NC(=O)c2nc(Cl)c(N)nc2N)CC1 [Example 1.18]	28
CC(C)CC(=O)N1CCC(CCc2ccccc2)(CNC(N)=NC(=O)c2nc(Cl)c(N)nc2N)CC1 [Example 1.11]	17
COC(=O)CN1CCC(CNC(N)=NC(=O)c2nc(Cl)c(N)nc2N)(Cc2ccccc2)CC1 [Example 1.30]	70

Next, values leading:

IC50 [nM]	SMILES
97	N/C(=N\C(=O)c1nc(Cl)c(N)nc1N)NCC1(CCc2ccccc2)CCN(C(=O)NCCCCCCNC(=O)N2CCC(CCc3ccccc3)(CN/C(N)=N/C(=O)c3nc(Cl)c(N)nc3N)CC2)CC1 [Example 6.1]
10.1	NC(=NC(=O)c1nc(Cl)c(N)nc1N)NCC1(CCc2ccccc2)CCN(C(=O)NCC(=O)O)CC1 [Example 3.3]
18	N=C(N)NCCCCC(=O)N1CCC(CCc2ccccc2)(CNC(N)=NC(=O)c2nc(Cl)c(N)nc2N)CC1 [Example 4.2]
12	N=C(N)NCCC(=O)N1CCC(CCc2ccccc2)(CNC(N)=NC(=O)c2nc(Cl)c(N)nc2N)CC1 [Example 4.1]
74	COC(=O)c1ccc(CCC2(CNC(N)=NC(=O)c3nc(Cl)c(N)nc3N)CCN(C(=O)NCC[N+](C)(C)C)CC2)cc1 [Example 5.2]
19	NCCC(=O)N1CCC(CCc2ccccc2)(CNC(N)=NC(=O)c2nc(Cl)c(N)nc2N)CC1 [Example 2.2]
65	NCCCN1CCC(CCc2ccccc2)(CNC(N)=NC(=O)c2nc(Cl)c(N)nc2N)CC1 [Example 2.5]
200	COc1ccccc1C1(CNC(N)=NC(=O)c2nc(Cl)c(N)nc2N)CCNCC1 [Example 2.10]
149	NC(=NC(=O)c1nc(Cl)c(N)nc1N)NCC1(CCc2ccccc2)CCN(C(=O)NCCC(=O)O)CC1 [Example 3.2]
93	NCCC(=O)N1CCC(CNC(N)=NC(=O)c2nc(Cl)c(N)nc2N)(Cc2ccccc2)CC1 [Example 2.9]
120	NCCCN1CCC(CNC(N)=NC(=O)c2nc(Cl)c(N)nc2N)(Cc2ccccc2)CC1 [Example 2.14]
16	NCCNC(=O)N1CCC(CCc2ccccc2)(CNC(N)=NC(=O)c2nc(Cl)c(N)nc2N)CC1 [Example 2.7]
61	NCCCCC(=O)N1CCC(CNC(N)=NC(=O)c2nc(Cl)c(N)nc2N)(Cc2ccccc2)CC1 [Example 2.8]
